According to patent US10988459B2 (priority 2015, dated 2021):

Each compound was assayed against human RIP1 kinase domain (2-375) (Homo sapiens (Human), UniProt Q13546) (assay: biochemical). Conditions: Ki.
Type: biochemical
Summary of the method: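 Ki^app comes from Morrison tight-binding fits of fractional activity versus compound concentration. Activity was read as ADP production, via tracer displacement lowering fluorescence polarization (633 nm laser). Conditions: 2 h, 50 nM insect-cell-expressed enzyme, 50 uM ATP, 30 mM MgCl2, 1 mM DTT, 0.5% DMSO, pH 7.5 Hepes.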

Chain of human RIP1 kinase domain (2-375) (Q13546 2-375): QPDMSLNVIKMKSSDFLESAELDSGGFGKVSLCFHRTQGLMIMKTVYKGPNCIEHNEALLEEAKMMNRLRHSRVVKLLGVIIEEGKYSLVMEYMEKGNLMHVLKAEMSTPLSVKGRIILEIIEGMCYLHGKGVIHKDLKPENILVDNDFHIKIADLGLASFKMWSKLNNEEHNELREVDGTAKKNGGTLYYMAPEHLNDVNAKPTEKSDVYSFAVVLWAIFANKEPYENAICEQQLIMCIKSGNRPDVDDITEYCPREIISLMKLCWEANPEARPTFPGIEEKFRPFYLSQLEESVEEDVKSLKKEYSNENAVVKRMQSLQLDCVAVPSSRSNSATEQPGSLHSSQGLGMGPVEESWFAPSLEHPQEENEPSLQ

| Compound | Ki [nM] |
| --- | --- |
| CN1C(=O)[C@@H](NC(=O)c2cn3c(C(F)(F)F)cccc3n2)COc2ccccc21 (single isomer, unassigned) [Example 736] | 70 |

Same assay, conditions: Table 1; apparent Ki (Morrison tight-binding fit); 50 nM RIP1 kinase domain, 50 uM ATP, 2 hours incubation; read-out: RIP1 Ki

| Compound | Ki [nM] |
| --- | --- |
| CN1C(=O)[C@@H](NC(=O)c2n[nH]c3c2CC2CC2(C)C3)COc2ccccc21 (stereo partly drawn) [Example 1, 5a-methyl-N—((S)-5-methyl-4-oxo-2,3,4,5-tetrahydrobenzo[b][1,4]oxazepin-3-yl)-1,4,4a,5,5a,6-hexahydrocyclopropa[f]indazole-3-carboxamide] | 4700 |
| CN1C(=O)[C@@H](NC(=O)c2n[nH]c3c2CCC2(CC2)C3)COc2ccccc21 [Example 2, (S)—N-(5-methyl-4-oxo-2,3,4,5-tetrahydrobenzo[b][1,4]oxazepin-3-yl)-1′,4′,5′,7′-tetrahydrospiro[cyclopropane-1,6′-indazole]-3′-carboxamide] | 6500 |
| O=C(N[C@H]1COc2ccccc2NC1=O)c1n[nH]c2c1CC1CC1C2 (stereo partly drawn) [Example 4, N—((S)-4-oxo-2,3,4,5-tetrahydrobenzo[b][1,4]oxazepin-3-yl)-1,4,4a,5,5a,6-hexahydrocyclopropa[f]indazole-3-carboxamide] | 5500 |

Same assay, conditions: Table 3; apparent Ki (Morrison tight-binding fit); 50 nM RIP1 kinase domain, 50 uM ATP, 2 hours incubation; read-out: Ki

| Compound | Ki [nM] |
| --- | --- |
| Cc1cc2n(n1)CC[C@H](NC(=O)c1ncn3ccc(C(F)(F)F)cc13)C(=O)N2C (stereo in doubt) [Example 337, N-(2,4-dimethyl-5-oxo-5,6,7,8-tetrahydro-4H-pyrazolo[1,5-a][1,3]diazepin-6-yl)-7-(trifluoromethyl)imidazo[1,5-a]pyridine-1-carboxamide] | 536 |

Same assay, conditions: Table 5; apparent Ki (Morrison tight-binding fit); 50 nM RIP1 kinase domain, 50 uM ATP, 2 hours incubation; read-out: Ki

| Compound | Ki [nM] |
| --- | --- |
| COC1CN(Cc2cc3n(n2)CC[C@H](NC(=O)c2ncn(Cc4ccccc4)n2)C(=O)N3C)C1 (single isomer, unassigned) [Example 725] | 172 |
| CN1C(=O)[C@@H](NC(=O)c2ncn(Cc3ccccc3)n2)CCn2nc(CN3CC(F)C3)cc21 (single isomer, unassigned) [Example 726] | 142 |
| CN1C(=O)[C@@H](NC(=O)c2ncn(Cc3ccccc3)n2)CCn2nc(CN3CCC(F)(F)C3)cc21 (single isomer, unassigned) [Example 727] | 59 |
| COCCNCc1cc2n(n1)CC[C@H](NC(=O)c1ncn(Cc3ccccc3)n1)C(=O)N2C (single isomer, unassigned) [Example 728] | 225 |
| CN1C(=O)[C@@H](NC(=O)c2nc3n(n2)CCN[C@@H]3c2ccccc2)COc2ccccc21 (single isomer, unassigned) [Example 729] | 74 |
| CN1C(=O)[C@@H](NC(=O)c2nc3n(n2)CCN(C)C3c2ccccc2)COc2ccccc21 (single isomer, unassigned) [Example 730] | 112 |
| CN1C(=O)[C@@H](NC(=O)c2ncn(Cc3ccccc3)n2)CCn2nc(CO)cc21 (single isomer, unassigned) [Example 732] | 61 |
| CN1C(=O)[C@@H](NC(=O)c2ncn(Cc3ccccc3)n2)CCn2nc(CNCC(F)(F)F)cc21 (single isomer, unassigned) [Example 733] | 68 |
| CN1C(=O)[C@@H](NC(=O)c2nc3n(n2)[C@@H](c2ccccc2)CCC3)COc2ccccc21 (single isomer, unassigned) [Example 734] | 149 |
| CN1C(=O)[C@H](NC(=O)c2ncn(Cc3ccccc3)n2)CCn2nc(CCCN3CCOCC3)cc21 (single isomer, unassigned) [Example 738] | 4020 |
| CN1C(=O)[C@@H](NC(=O)c2cn(Cc3ccccc3)cn2)CCn2nccc21 (single isomer, unassigned) [Example 750] | 66 |
| CC[C@]1(C)OCc2cnc(C(=O)N[C@H]3COc4ccccc4N(C)C3=O)cc21 (single isomer, unassigned) [Example 764] | 267 |
| CC[C@@]1(C)OCc2cnc(C(=O)N[C@H]3COc4ccccc4N(C)C3=O)cc21 (single isomer, unassigned) [Example 765] | 15 |
| COCCNCc1cc2n(n1)CCC(NC(=O)c1ncn(Cc3ccccc3)n1)C(=O)N2C (single isomer, unassigned) [Example 780, 1-benzyl-N-(2-(((2-methoxyethyl)amino)methyl)-4-methyl-5-oxo-5,6,7,8-tetrahydro-4H-pyrazolo[1,5-a][1,3]diazepin-6-yl)-1H-1,2,4-triazole-3-carboxamide] | 598 |
| COCCNCc1cc2n(n1)CCC(NC(=O)c1ncn(Cc3ccccc3)n1)C(=O)N2C (single isomer, unassigned) [Example 784] | 225 |
| CN1C(=O)[C@@H](NC(=O)c2nc3n(n2)CCN[C@@H]3c2ccccc2)COc2ccccc21 (single isomer, unassigned) [Example 785] | 74 |
| CN1C(=O)[C@@H](NC(=O)c2ncn(Cc3ccccc3)n2)CCn2nc(CO)cc21 (single isomer, unassigned) [Example 788] | 61 |
| CN1C(=O)[C@@H](NC(=O)c2ncn(Cc3ccccc3)n2)CCn2nc(CNCC(F)(F)F)cc21 (single isomer, unassigned) [Example 789] | 68 |
| CN1C(=O)[C@@H](NC(=O)c2nc3n(n2)[C@@H](c2ccccc2)CCC3)COc2ccccc21 (single isomer, unassigned) [Example 790] | 149 |
| CN1C(=O)[C@@H](NC(=O)c2nc3n(n2)C(c2ccccc2)CCC3)COc2ccccc21 (single isomer, unassigned) [Example 791] | 13 |
| CN1C(=O)[C@@H](NC(=O)c2cn3c(C(F)(F)F)cccc3n2)COc2ccccc21 (single isomer, unassigned) [Example 792] | 70 |

Same assay, conditions: human RIP1 kinase domain (2-375), Transcreener ADP assay, 50 uM ATP, 2 hours incubation; read-out: RIP1 Ki

| Compound | Ki [nM] |
| --- | --- |
| CC(c1ccc(F)cc1)n1cnc(C(=O)N[C@H]2CCn3nc(C4CC4)cc3N(C)C2=O)n1 (stereo in doubt) [Example 290, (S)—N-(2-cyclopropyl-4-methyl-5-oxo-5,6,7,8-tetrahydro-4H-pyrazolo[1,5-a][1,3]diazepin-6-yl)-1-(1-(4-fluorophenyl)ethyl)-1H-1,2,4-triazole-3-carboxamide] | 117 |
| CN1C(=O)[C@@H](NC(=O)c2ncn(CC3CC3(F)F)n2)CCn2nc(C3CC3)cc21 (stereo in doubt) [Example 291, (S)—N-(2-cyclopropyl-4-methyl-5-oxo-5,6,7,8-tetrahydro-4H-pyrazolo[1,5-a][1,3]diazepin-6-yl)-1-((2,2-difluorocyclopropyl)methyl)-1H-1,2,4-triazole-3-carboxamide] | 820 |
| CC(c1ccccc1)n1cnc(C(=O)N[C@H]2CCn3nc(C4CC4)cc3N(C)C2=O)n1 (stereo in doubt) [Example 292, (S)—N-(2-cyclopropyl-4-methyl-5-oxo-5,6,7,8-tetrahydro-4H-pyrazolo[1,5-a][1,3]diazepin-6-yl)-1-(1-phenylethyl)-1H-1,2,4-triazole-3-carboxamide] | 100 |

Same assay, conditions: read-out: RIP1 Ki

| Compound | Ki [nM] |
| --- | --- |
| CN1C(=O)[C@@H](NC(=O)c2n[nH]c3c2CC(C(C)(C)C)CC3)COc2ccccc21 (stereo partly drawn) [Example 3, 5-(tert-butyl)-N—((S)-5-methyl-4-oxo-2,3,4,5-tetrahydrobenzo[b][1,4]oxazepin-3-yl)-4,5,6,7-tetrahydro-1H-indazole-3-carboxamide] | 68.8 |

Same assay, conditions: tight-binding apparent inhibition constant; human RIP1 kinase domain (2-375) 50 nM, 50 uM ATP, 2 hours; read-out: Ki

| Compound | Ki [nM] |
| --- | --- |
| Cc1cc2n(n1)CC[C@H](NC(=O)c1ncn(CC3CC(C)C3)n1)C(=O)N2C (stereo in doubt) [Example 491, 1-[(3-methylcyclobutyl)methyl]-N-(6S)-2,4-dimethyl-5-oxo-7,8-dihydro-6H-pyrazol[1,5-a][1,3]diazepin-6-yl-1,2,4-triazole-3-carboxamide] | 37 |
| O=C(N[C@H]1COc2cc(F)cc(F)c2NC1=O)c1nc2n(n1)CCC2c1ccccc1 (stereo in doubt) [Example 625, (7S)-7-phenyl-N-[(3S)-6,8-difluoro-4-oxo-3,5-dihydro-2H-1,5-benzoxazepin-3-yl]-6,7-dihydro-5H-pyrrolo[1,2-b][1,2,4]triazole-2-carboxamide] | 450 |
| O=C(N[C@H]1COc2cc(F)cc(F)c2NC1=O)c1nc2n(n1)CCC2c1ccccc1 (stereo in doubt) [Example 626, (7R)-7-phenyl-N-[(3S)-6,8-difluoro-4-oxo-3,5-dihydro-2H-1,5-benzoxazepin-3-yl]-6,7-dihydro-5H-pyrrolo[1,2-b][1,2,4]triazole-2-carboxamide] | 14 |
| CN1C(=O)[C@H](NC(=O)c2ncn(Cc3ccccc3)n2)CCn2nc([C@@H]3CC3(F)F)cc21 (stereo in doubt) [Example 675, 1-benzyl-N-[rac-(6R)-4-methyl-5-oxo-2-[rac-(1S)-2,2-difluorocyclopropyl]-7,8-dihydro-6H-pyrazolo[1,5-a] [1,3]diazepin-6-yl]-1,2,4-triazole-3-carcoxamide] | 16.4 |
| CN1C(=O)[C@@H](NC(=O)c2ncn(Cc3ccccc3)n2)CCn2nc([C@H]3CC3(F)F)cc21 (stereo in doubt) [Example 679, 1-benzyl-N-[rac-(6S)-4-methyl-5-oxo-2-[rac-(1R)-2,2-difluorocyclopropyl]-7,8-dihydro-6H-pyrazolo[1,5-a] [1,3diazepin-6-yl]-1,2,4-triazole-3-carboxamide] | 21.6 |
| CN1C(=O)[C@H](NC(=O)c2ncn(Cc3ccc(F)cc3)n2)CCn2nc(C3CC3)cc21 (stereo in doubt) [Example 680, 1-[(4-fluorophenyl)methyl]-N-[rac-(6R)-2-cyclopropyl-4-methyl-5-oxo-7,8-dihydro-6H-pyrazolo[1,5-a][1,3]diazepin-6-yl]-1,2,4-triazole-3-carboxamide] | 9200 |
| CN1C(=O)[C@@H](NC(=O)c2ncn(Cc3ccc(F)cc3)n2)CCn2nc(C3CC3)cc21 (stereo in doubt) [Example 681, 1-[(4-fluorophenyl)methyl]-N-[rac-(6S)-2-cyclopropyl-4-methyl-5-oxo-7,8-dihydro-6H-pyrazolo[1,5-a][1,3]diazepin-6-yl]-1,2,4-triazole-3-carboxamide] | 23.7 |
